Measured values from PMC8821551, “Binding of cationic analogues of α-MSH to lipopolysaccharide and disruption of the cytoplasmic membranes caused bactericidal action against Escherichia coli” (Scientific Reports, 2022).
Residues, ends and D or L forms follow the SMILES beside them.

Key:
Type in all cases: cell-based, Escherichia coli
[1] = system: E. coli ATCC 25922; test: Killing assay (killing kinetics), logarithmic phase cells; settings: for concentration at which a bactericidal effect (> 3 log reduction) was achieved: logarithmic phase E. coli cells (Fig. 1); for log reduction in cell viability: average ± SE, SEM
Method: For this study, a well-characterized strain of E. coli (ATCC 25922) was used. The strain was stored at − 80 °C in 15% (v/v) glycerol until sub-cultured onto LB agar plates for use.
The antibacterial activity of α-MSH and its cationic analogues was determined against both logarithmic (2–3 h) and stationary (16–18 h) phase of E. coli cells in LB medium. The bacterial suspension was pelleted, washed, and diluted in HEPES-glucose buffer (5 mM HEPES, 20 mM glucose, pH 7.4) to adjust the cell density by measuring the OD = 0.5 (10^8 CFU/mL) at 600 nm using a spectrophotometer. This suspension was used to obtain the desired inoculum sizes (10^5 CFU/mL, 10^6 CFU/mL, and 10^7 CFU/mL). The inoculums were exposed to various concentrations of peptides (1 µM, 2 µM, 5 µM, and 10 µM) and incubated at 37 °C. Untreated E. coli cells were also included as a control. At selected time points (0 min, 15 min, 30 min, 60 min, and 120 min), aliquots were taken out, and survival of E. coli cells was determined by quantitative plating on LB agar after appropriate dilution in the same buffer. The plates were incubated overnight at 37 °C, followed by colony counting. Each experiment was performed at least three times on three independent days.

[2] = system: E. coli cells; test: LPS competitive inhibition assay; settings: peptide fixed at 10 µM, free LPS beyond 128 µg/mL; 10^5 CFU/mL mid-log cells, 90 min, 37 °C; peptide without LPS = 100% mortality
Method: To determine whether LPS could influence the peptide’s antimicrobial activity, the potency of the most charged analogue, KKK-MSH, was evaluated against E. coli in the presence of LPS, using the protocol reported elsewhere. Peptide and LPS from E. coli […] (Sigma-Aldrich, India) in equal volume (50 µL) were incubated in a 96-well sterile plate at 37 °C for 1 h. After that, 100 μL of mid-log E. coli cells were added (at a final concentration of 10^5 CFU/mL) to the LPS-peptide mixture for 90 min at 37 °C. The peptide concentration was kept constant at 10 µM, and the concentration of LPS was varied from 2 to 1024 μg/mL. After incubation, 50 μL of the reaction mixture from each well was diluted with an appropriate amount of HEPES-glucose buffer, spread on LB agar plates, and kept at 37 °C for 16 h. Then on the next day, colonies were counted and compared with control (in the absence of LPS, cells treated with only peptide were considered 100% mortal). Mortality was calculated using the following formula: %survival=CFU/mLintreatedsample/CFU/mLinuntreatedsample×100Cellmortality(%)=100-%survival

[3] = system: E. coli outer membrane; test: Outer membrane permeabilization assay (NPN uptake); settings: 10^8 CFU/mL mid-log cells, 10 μM NPN, relative to 10 µM polymyxin B = 100%
Method: The outer membrane permeabilization assay was done as described in the literature with slight modifications. Briefly, bacterial cells were grown to mid-log phase in LB medium, washed and diluted to 10^8 CFU/mL in HEPES-glucose buffer. Next, this bacterial suspension was treated with 10 μM NPN probe and subsequently challenged with increasing concentrations of peptides (1 µM to 20 µM). Changes in the fluorescence intensity of NPN were measured with the help of Shimadzu RF-5301 PC spectrofluorimeter (excitation at 350 nm and emission at 420 nm). Increased intensity of emission resulted from the damage to the bacterial outer membrane and was measured until no further increase in fluorescence was observed. NPN uptake was calculated using the following formula: %NPNuptake=Fobs-F0/F100-F0×100 where Fobs is the NPN fluorescence intensity after the peptide treatment, F0 is the NPN fluorescence with untreated E. coli cells, and F100 is the NPN fluorescence in the presence of 10 µM polymyxin B (a positive control).

[4] = system: E. coli cytoplasmic or inner membrane; test: Membrane depolarization assay (DiSC3(5)); settings: DiSC3(5) 0.4 µM, 0.2 mM EDTA, 10^6 CFU/mL mid-log cells, HEPES-glucose buffer; peptide 1 to 10 µM
Method: The membrane depolarization of E. coli cells was determined using a potentiometric fluorescent probe DiSC3(5), as described elsewhere. Briefly, mid-log phase E. coli cells were diluted to 10^6 CFU/mL in the same HEPES-glucose buffer and were incubated with DiSC3(5) and EDTA at 0.4 µM and 0.2 mM concentrations, respectively, for 1 h in the dark at 37 °C, till the maximum uptake of the probe occurred. Increasing concentrations of the studied peptides from 1 µM to 10 µM were then added to these dye-loaded cells in a quartz cuvette, and the fluorescence intensity was measured on spectrofluorimeter (Shimadzu RF-5301 PC) set as excitation at 622 nm and emission at 670 nm. The increase in fluorescence intensity accounted for the dissipation of membrane potential caused due to peptide treatment. Cells treated with 10 µM melittin were used as a positive control. Simultaneously, the dye-loaded cells were plated onto LB agar to estimate bacterial cell death.

[5] = peptide 1 μM, HEPES-glucose buffer, average of three independent days
[6] = peptide 20 μM (highest concentration)

## CSCC[C@H](NC(=O)[C@H](CCCCN)NC(=O)[C@H](Cc1ccc(O)cc1)NC(=O)[C@H](CCCCN)NC(C)=O)C(=O)N[C@@H](CCCCN)C(=O)N[C@@H](Cc1c[nH]cn1)C(=O)N[C@@H](Cc1ccccc1)C(=O)N[C@@H](CCCNC(=N)N)C(=O)N[C@@H](Cc1c[nH]c2ccccc12)C(=O)NCC(=O)N[C@@H](CCCCN)C(=O)N1CCC[C@H]1C(=O)N[C@H](C(N)=O)C(C)C [KKK-MSH] (Ac-KYKMKHFRWGKPV-NH2)
[1]
  concentration at which a bactericidal effect (> 3 log reduction) was achieved: 1 µM
[1]; logarithmic phase, 10^5 CFU/mL, HEPES-glucose buffer, 37 °C, peptide 1 µM
  incubation time to complete eradication of the cells: ≤ 15 min
[1]; logarithmic phase, 10^5 CFU/mL, HEPES-glucose buffer, 37 °C, peptide 2 µM
  incubation time to complete eradication of the cells: ≤ 15 min
[1]; logarithmic phase, 10^5 CFU, peptide 1 µM, within 15 min
  log reduction in cell viability (bactericidal effect): > 3 log
[1]; logarithmic phase, 10^6 CFU/mL, peptide 1 µM
  complete eradication of the cells, in words: not at 1 µM concentration
[1]; logarithmic phase, 10^6 CFU/mL, peptide 2 µM
  incubation time to complete eradication of the cells: 60 min
[1]; logarithmic phase, 10^6 CFU/mL, peptide 5 µM
  incubation time to complete eradication of the cells: 30 min
[1]; logarithmic phase, 10^6 CFU/mL, peptide 10 µM
  incubation time to complete eradication of the cells: 15 min
[1]; logarithmic phase, 10^7 CFU/mL, peptide 10 µM
  incubation time to no viable cells: 1 h
[1]; logarithmic phase, high cell density
  lowest concentration at which the bactericidal effect was maintained: 2 µM
[2]
  killing of E. coli cells in the presence of free LPS: less than 20%
[3]; [5]
  %NPN uptake: 30.7%
[3]; peptide 2 μM
  %NPN uptake: 34%
[3]; peptide 5 μM
  %NPN uptake: 55.6%
[3]; peptide 10 μM
  %NPN uptake: 77.6%
[3]; [6]
  %NPN uptake: 86%
[4]
  lowest concentration that induced depolarization of E. coli inner membrane: 2 µM

## CSCC[C@H](NC(=O)[C@H](CCCCN)NC(=O)[C@H](Cc1ccc(O)cc1)NC(=O)[C@H](CCCCN)NC(C)=O)C(=O)N[C@@H](C)C(=O)N[C@@H](Cc1c[nH]cn1)C(=O)N[C@@H](Cc1ccccc1)C(=O)N[C@@H](CCCNC(=N)N)C(=O)N[C@@H](Cc1c[nH]c2ccccc12)C(=O)NCC(=O)N[C@@H](CCCCN)C(=O)N1CCC[C@H]1C(=O)N[C@H](C(N)=O)C(C)C [KKA-MSH] (Ac-KYKMAHFRWGKPV-NH2)
[1]
  concentration at which a bactericidal effect (> 3 log reduction) was achieved: 5 µM
[1]; logarithmic phase, 10^5 CFU/mL, HEPES-glucose buffer pH 7.4, 37 °C, peptide 1 µM, 1 h, three independent experiments
  log reduction in cell viability: 1.8 ± 0.1 log
[1]; logarithmic phase, 10^5 CFU/mL, HEPES-glucose buffer pH 7.4, 37 °C, peptide 1 µM, 2 h, three independent experiments
  log reduction in cell viability: 2.1 ± 0.1 log
[1]; logarithmic phase, 10^5 CFU/mL, HEPES-glucose buffer pH 7.4, 37 °C, peptide 2 µM, 1 h, three independent experiments
  log reduction in cell viability: 2.7 ± 0.3 log
[1]; logarithmic phase, 10^5 CFU/mL, HEPES-glucose buffer pH 7.4, 37 °C, peptide 2 µM, 2 h, three independent experiments
  log reduction in cell viability: 2.9 ± 0.2 log
[1]; logarithmic phase, 10^5 CFU/mL, peptide 5 µM
  change of killing activity at 5 µM against lower concentrations, in words: no change in its activity
[1]; logarithmic phase, 10^5 CFU/mL, peptide 2, 5 and 10 µM, 1 h of incubation
  bactericidal effect (> 3 log reduction), in words: accomplished bactericidal effect
[1]; logarithmic phase, 10^6 CFU/mL, peptide 10 µM, 2 h, three independent days
  log reduction in cell viability: 3.5 ± 0.2 log
[1]; logarithmic phase, 10^7 CFU/mL, peptide 10 µM, 2 h, three independent days
  log reduction in cell viability: 2.7 ± 0.02 log
[3]; [5]
  %NPN uptake: 12.5%
[3]; [6]
  %NPN uptake: 55%
[4]
  lowest concentration that induced depolarization of E. coli inner membrane: 2 µM
